The record followed here is patent US20170027896A1, “METHODS AND COMPOSITIONS FOR THE TREATMENT OF VASCULAR MALFORMATION” (IFOM - FONDAZIONE ISTITUTO FIRC DI ONCOLOGIA MOLECOLARE, priority 2014, published 2017).

Experiment [1] concerns CCM3-knockout brain endothelial cells in primary culture. Kind of experiment: Immunostaining of CCM3-knockout brain endothelial cells in primary culture. Format: cell-based, mouse. To be noted: 48 h. From the text:
Endothelial cells from the CCM3-flox/flox mice (8-10 weeks old) were isolated from the brain as previously described^13. Recombination of the floxed CCM3 gene was induced by treating the cells at culture day 1 with the AdenoCre viral vector, as previously described^59. The control endothelial cells were an aliquot of the same endothelial cell preparation treated with AdenoGFP, instead of AdenoCre. The cells were then maintained in culture for up to a further 7 days before analysis, as described in the main text. Drug treatments were for 48 h before the processing of the cells. Drugs were added to confluent cells for 48 h before the indicated assays. The final concentrations used were: […] (all from Sigma-Aldrich). As all of these were dissolved in DMSO, control treatment (vehicle) was 0.1% DMSO final concentration, as for drug treatment. Cells cultured in vitro were fixed and stained as described previously^46. The following antibodies were used: […] (hamster; MAB1398Z, Millipore); anti-b-galactosidase (chicken; ab9361, Abcam); anti-VE-cadherin (rat monoclonal; 550548, BD Biosciences); anti-VE-cadherin (goat; sc-6458, Santa Cruz); anti-active-b-catenin (mouse monoclonal clone 8E7) dephosphorylated on […] and Thr41, Millipore); anti-total-b-catenin (mouse monoclonal; […] AF3158, R&D); anti-CD44 (rat; 553131, BD Biosciences); anti-ID1 (rabbit; sc-488, Santa Cruz); anti-aSMA (mouse monoclonal; […], Sigma); anti-GFP (rabbit; A-6455, Invitrogen); anti-podocalyxin (goat; AF1556, R&D); anti-phospho-histone H3 (rabbit; ab51776, Millipore); anti-CCM3 (rabbit; Eurogentec); anti-p-Smad1 (rabbit; 9516, Cell Signaling); anti-endomucin (rabbit; sc-65495, Santa Cruz); anti-α-tubulin (mouse monoclonal; T9026, Sigma).

In experiment [2] the test system is b-catenin/Tcf4-dependent transcription. The experiment can be described thus: Top/Fop-Flash assay in CCM3-knockout endothelial line. Format: cell-based, mouse. To be noted: 48 h. The method, then:
Drugs were added to confluent cells for 48 h before the indicated assays. The final concentrations used were: […] (all from Sigma-Aldrich). As all of these were dissolved in DMSO, control treatment (vehicle) was 0.1% DMSO final concentration, as for drug treatment. […] This was transfected into the endothelial cells […] using Lipofectamine 2000, according to the manufacturer instructions (Invitrogen). The pCMV plasmid for constitutive expression of b-gal was co-transfected ([…]), for normalization of luciferase expression over transfection efficiency. […] This was co-transfected with the b-gal plasmid, for normalization, as above. The Dual-Light Reporter Gene assay system (Applied Biosystems) for the combined detection of firefly luciferase and b-gal was used. The cell extraction and detection of chemiluminescence (Glomax 96 microplate luminometer; Promega) was carried out according to the manufacture instructions.

For experiment [3], the system named is vascular lesions in the brain of CCM3-ECKO mice. Kind of experiment: Assessment of lesion burden in brains of CCM3-ECKO mice. Format: in vivo, mouse. From the text: The CCM3-flox/flox mice were generated at TaconicArtemis (Koeln, Germany). Two P-lox sequences were inserted that flank exons 4 and 5 of the murine CCM3 gene, to produce a loss-of-function mutation after excision by Ore recombinase. These CCM3-flox/flox mice were bred with Cdh5(PAC)-CreERT2 mice (Wang et al, 2010) for tamoxifen-inducible endothelial-cell-specific expression of Ore-recombinase and CCM3 gene recombination. The CCM3-flox/flox-Cdh5(PAC)-CreERT2 mice were further bred with BAT-gal mice (Maretto et al, 2003) to monitor the activation of b-catenin transcription signaling, and with Rosa 26-Enhanced […] Fluorescent Protein (EYFP) (Rosa26EYFP) mice (Srinivas et al, 2001) to monitor the expression of Ore-recombinase through the expression of EYFP. Tamoxifen (Sigma) was dissolved in corn oil and 10% ethanol (at 10 mg/ml), and then diluted 1:5 in corn oil before single intragastric administration to dpn 1-2 pups (35 mg/kg body weight), as described in^14. The control (wild-type) mice included CCM3-flox/flox-Cdh5(PAC)-CreERT2-BAT-gal mice treated with the vehicle used to dissolve the tamoxifen (corn oil plus 2% ethanol), and CCM3^+/+-Cdh5(PAC)-CreERT2-BAT-gal mice treated with tamoxifen.
Brains and eyes from mice pups were fixed in 3% paraformaldehyde immediately after dissection, and this fixing was continued overnight at 4° C. The retinas were dissected from the eyes just before staining as the whole mount. Fixed brains were embedded in 4% low-melting-point agarose and sectioned along the sagittal axis ([…]) using a vibratome (1000 Plus, The Vibratome Company, St. Louis, Mo., US).
For the classification and counting of lesions, entire brains from dpn 9 littermate pups were sectioned and immunostained for Pecam as described above and in the Methods. Sections were then examined under wide-field fluorescence microscopy (10× and 20×). Lesions were classified as described in^63 as mulberry (multiple cavernae, group of more than two contiguous cavernae), single caverna (single dilated vessel with maximal diameter accommodating more than 25 red blood cells), or telangiectases, tortuous small vessels with abnormally dilated lumen). The total numbers of lesions were calculated by summing all of the types of lesions.
As the sections were […], a correction was applied to the number of mulberry lesions, which can span two sections. Therefore, the number of mulberry lesions was divided by […]. The lesions were counted and classified independently by two observers who were blinded to the treatments.
The maximal diameter of the mulberry lesions and single cavernae was used for statistical comparison.

“Also recorded” adds a separate entry of the source.

As for `CSc1ccc(/C=C2/C(C)=C(CC(=O)O)c3cc(F)ccc32)cc1` [sulindac sulfide, (Z)-5-Fluoro-2-methyl-1-[4-(methylthio)benzylidene]indene-3-acetic acid], in experiment [1], the “VE-cadherin at cell-cell contacts” value is reported as “more localized to cell-cell contacts”; the “nuclear localization of active b-catenin” value is on record as “strongly inhibited”; the “overexpression of Klf4 and S100a4 proteins” value is “inhibition; also recorded: inhibited”. Besides, in experiment [2], the “b-catenin transcriptional activity in Top/Fop Flash reporter assay” value is on record as “inhibited; also recorded: reduced”. The “diameters of cerebral vessels / mulberry budding ends (Pecam immunostaining of brain sections)” value in experiment [3] (CCM3-ECKO pups at dpn9, treated from dpn2) is given as “greatly reduces”. The “maximal diameter of single cavernae” value in experiment [3] (CCM3-ECKO pups dpn 9, 30 mg/kg daily) was “did not significantly reduce”. In addition, in experiment [3] (CCM3-ECKO pups dpn 9, 30 mg/kg daily, vehicle 386±56 mm), the mean maximal diameter of mulberry lesions (±SD) is 244 ± 38 µm. Further, the “mean number (±SD) of vascular lesions per brain” value in experiment [3] (CCM3-ECKO pups dpn 9, 30 mg/kg intragastrically daily, controls 166.8±22 (sulfide study), 153.5±28 (sulfone study)) amounted to 72.6±9.
